Tests used:
Conditions in all cases: incubation time: 72 h
[1] = test system: CAL-120; assay: drug sensitivity score (DSS), CellTiter-Glo (DSS (AUC-based score)); higher = stronger drug effect (viability inhibition or cytotoxicity); extreme values may be limits of the assay
Procedure, shortened: (§1)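 The area under the fitted dose-response curve was used to calculate the drug sensitivity score. Cells from breast cancer lines were incubated for 72 h in 384-well plates with compound at 5 concentrations spaced 10-fold over a 10,000-fold range specific to each compound. Plates were read for CellTox Green and then CellTiter-Glo, and normalised to 0.1 % DMSO and a positive kill control.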

[2] = test system: CAL-148; assay: as above
Procedure, shortened: as §1

[3] = test system: DU-4475; assay: as above
Procedure, shortened: as §1

[4] = test system: HCC1143; assay: as above
Procedure, shortened: as §1

[5] = test system: HCC1937; assay: as above
Procedure, shortened: as §1

[6] = test system: HDQ-P1; assay: as above
Procedure, shortened: as §1

[7] = test system: Hs578T; assay: as above
Procedure, shortened: as §1

[8] = test system: MDA-MB-231; assay: as above
Procedure, shortened: as §1

[9] = test system: MDA-MB-436; assay: as above
Procedure, shortened: as §1

[10] = test system: MDA-MB-453; assay: as above
Procedure, shortened: as §1

[11] = test system: MDA-MB-468; assay: as above
Procedure, shortened: as §1

[12] = test system: SK-BR-3; assay: as above
Procedure, shortened: as §1

[13] = test system: BT-474; assay: drug sensitivity score (DSS), CellTox Green (DSS (AUC-based score)); higher = stronger drug effect (viability inhibition or cytotoxicity); extreme values may be limits of the assay
Procedure, shortened: as §1

[14] = test system: BT-549; assay: as above
Procedure, shortened: as §1

[15] = test system: CAL-148; assay: as above
Procedure, shortened: as §1

[16] = test system: DU-4475; assay: as above
Procedure, shortened: as §1

[17] = test system: HCC1937; assay: as above
Procedure, shortened: as §1

[18] = test system: Hs578T; assay: as above
Procedure, shortened: as §1

[19] = test system: MDA-MB-231; assay: as above
Procedure, shortened: as §1

[20] = test system: MDA-MB-453; assay: as above
Procedure, shortened: as §1

SMILES	drug sensitivity score [1]	drug sensitivity score [2]	drug sensitivity score [3]	drug sensitivity score [4]	drug sensitivity score [5]	drug sensitivity score [6]	drug sensitivity score [7]	drug sensitivity score [8]	drug sensitivity score [9]	drug sensitivity score [10]	drug sensitivity score [11]	drug sensitivity score [12]	drug sensitivity score [13]	drug sensitivity score [14]	drug sensitivity score [15]	drug sensitivity score [16]	drug sensitivity score [17]	drug sensitivity score [18]	drug sensitivity score [19]	drug sensitivity score [20]
Cc1ccc([N+](=O)[O-])cc1S(=O)(=O)N(C)/N=C/c1cnc2ccc(Br)cn12 [PIK-75]	22.4	19	29.1	24	24	25.5	29	30.5	27.1	23	30.2	30.4	20.3	16.9	0	7.23	2.32	25.2	40	7.11
Oc1ncnc2[nH]ncc12 [Allopurinol]	0	0	0	0	0	0	0	0	0	0	0	0	0	0	0	0	0	0	0	
O=NN(CCCl)C(=O)NCCCl [Carmustine]	0	0	0	0	0	0	0	0	0	0	0	0	0	0	0	0	0	0	0	0
COc1cc2c(cc1O)CC[C@@H]1[C@@H]2CC[C@]2(C)[C@@H](O)CC[C@@H]12 [2-methoxyestradiol]	4.15	2.17	2.41	3.67	0	0.369	7.49	5.78	6.35	5.52	4.21	5.71	3.99	0.838	0	0	0	8.52	13.2	0
CC1=C2C[C@H]3[C@@H](CC=C4C[C@@H](O)CC[C@@]43C)[C@@H]2CC[C@]12O[C@@H]1C[C@H](C)CN[C@H]1[C@H]2C [Cyclopamine]	0	0	0	0	0	0	0	0	0	0	0	0	0	0	0	0		0	0	0
O=C1CN2Cc3c(ccc(Cl)c3Cl)N=C2N1 [Anagrelide]	0	0	0	0	0	0	1.32	0	0	0	0	0	0	0		0	0	0	0	0
C[C@]12CC[C@@H]3c4ccc(OC(=O)N(CCCl)CCCl)cc4CC[C@H]3[C@@H]1CC[C@@H]2O [Estramustine]	0	0	0	0	0	0	0	0	0	0	0.683	0	0	2.52	0	0	0		0	0
CC(=O)c1c(C)c2cnc(Nc3ccc(N4CCNCC4)cn3)nc2n(C2CCCC2)c1=O [Palbociclib]	3.04	0	0	0	0	0	0.478	0	0	0	4.56	5.42	0	0		0	0	0	0	0
CC(=O)N(O)CCCCCNC(=O)CCC(=O)N(O)CCCCCNC(=O)CCC(=O)N(O)CCCCCN [Deferoxamine]	0	9.03	5.21	3.11	3.29	2.75	2.31	0	4.73	0	7.85	4.14	0	0	7.47	0	0	0	0	0
Cn1cnc2c(F)c(Nc3ccc(Br)cc3Cl)c(C(=O)NOCCO)cc21 [Selumetinib]	3	0	19.9	0	0	11.1	0	5.56	0.63	0	2.35	0	0	0	0	8.17	0	0	13.2	0
CC[C@@H]1C(=O)OC[C@@H]1Cc1cncn1C [Pilocarpine]	0	0	0	0	0	0	0	0	0	0	0	0	0	0	0	0	0		0	0
CC1(C)CNc2cc(NC(=O)c3cccnc3NCc3ccncc3)ccc21 [Motesanib]	0	0	0	0	0	0	0	0	0	0	0.164	0	0	0	0	0	0	0	0	0
CC(=O)O[C@@]12CO[C@@H]1C[C@H](O)[C@@]1(C)C(=O)[C@H](O)C3=C(C)[C@@H](OC(=O)[C@H](O)[C@@H](NC(=O)OC(C)(C)C)c4ccccc4)C[C@@](O)([C@@H](OC(=O)c4ccccc4)[C@H]21)C3(C)C [Docetaxel]	13.3	20.5	15.1	23.7	10.6	10.6	27.2	19.4	22	14.8	27.3	31.4	11.8	11.4	0	0	1.03	19.2	31	0
CC(C)(C)c1cnc(CSc2cnc(NC(=O)C3CCNCC3)s2)o1 [SNS-032]	14.8	10.3	18.9	24.3	17.2	21.6	21.8	25.3	23.7	17.7	28.1	25.6	0	7.86	0	0	0	17.1	30.8	0
Nc1ncn([C@@H]2O[C@H](CO)[C@@H](O)[C@H]2O)c(=O)n1 [Azacitidine]	0	0	0	0	0	2.36	0	0	4.78	0	12.1	0	1.95	0	0	0	0	0	0	0
COc1cc(F)c(F)c(Nc2ccc(I)cc2F)c1NS(=O)(=O)C1(C[C@H](O)CO)CC1 [Refametinib]	7.28	2.69	26.1	2.8	4.08	12.7	4.13	9.15	4.19	0	7.13	0	0	0	0	8.58	0	0	16.3	0
C[C@]1(O)C[C@@H](c2nc(-c3ccc4ccc(-c5ccccc5)nc4c3)c3c(N)nccn32)C1 [Linsitinib]	1.76	0	0	1.82	0	5.33	0	0	0.173	2.26	4.62	6.62	0	0	0	0	0	2.22	4.69	0
Cc1sc2c(c1C)C(c1ccc(Cl)cc1)=N[C@@H](CC(=O)OC(C)(C)C)c1nnc(C)n1-2 [(+)JQ1]	4.19	6.21	9.61	5.11	3.6	6.56	12.8	3.61	2.63	10.7	9.62	5.66	0	0	6.55	1.14	13.4	0	0	0
CC1(C)CCC(CN2CCN(c3ccc(C(=O)NS(=O)(=O)c4ccc(NCC5CCOCC5)c([N+](=O)[O-])c4)c(Oc4cnc5[nH]ccc5c4)c3)CC2)=C(c2ccc(Cl)cc2)C1 [ABT-199]	0	0	0	0	0	0	0	0	0	0	0.128	0	0	1.45	0	0		0	3.14	0
